Source: US20010000523A1, “Carboxylated polymers complexes” (priority 1999, published 2001)

Tested on: eye
Assay: Primary eye irritation, protocol FHSLA 16 CFR 1500.42
Assay type: in vivo
Conditions: products tested at 25% actives
Procedure: Eye irritation is a major concern in the formulation of personal care products, particularly when working with quats. Primary eye irritation was tested using the protocol outlined in FHSLA 16 CFR 1500.42. The products were tested at 25% actives.

SMILES	Description	Score
CCCCCCCCCCCCCCCCCC[N+](C)(C)C.[Cl-] [Stearyl trimethyl ammonium chloride]	Severely Irritating	106.0
CCCCCCCCCCCCCCCCCC[N+](C)(C)Cc1ccccc1.[Cl-] [Stearalkonium Chloride]	Severely Irritating	116.5
